What was measured:
Assay in all cases: Z'-LYTE kinase panel
Format in all cases: biochemical
ACVR1B (ALK4) = biological target: T1, ACVR1B (ALK4) (Homo sapiens, UniProt P36896)
T1 construct: purchased ThermoFisher (SelectScreen, Z'-LYTE)
T1 sequence (P36896 24-505): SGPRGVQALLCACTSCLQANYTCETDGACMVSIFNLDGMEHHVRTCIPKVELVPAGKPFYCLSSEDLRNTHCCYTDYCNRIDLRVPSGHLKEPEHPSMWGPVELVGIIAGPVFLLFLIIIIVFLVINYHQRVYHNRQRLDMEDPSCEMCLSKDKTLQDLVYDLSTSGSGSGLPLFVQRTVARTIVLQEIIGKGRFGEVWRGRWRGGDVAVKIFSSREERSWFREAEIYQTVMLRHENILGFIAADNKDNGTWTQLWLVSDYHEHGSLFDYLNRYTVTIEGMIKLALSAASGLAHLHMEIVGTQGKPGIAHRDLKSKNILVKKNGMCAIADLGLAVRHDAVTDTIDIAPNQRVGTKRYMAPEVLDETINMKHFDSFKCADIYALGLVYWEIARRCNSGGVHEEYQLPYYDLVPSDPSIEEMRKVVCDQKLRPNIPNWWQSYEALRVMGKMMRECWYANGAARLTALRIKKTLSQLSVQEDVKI
Procedure: (§1) Compounds 2, 3 and 5 were tested for activity against the 225 kinases in the ThermoFisher standard kinase panel. The standard Z′-LYTE assay protocol (ThermoFisher) was used to measure the percentage inhibition at 10 µM compound concentration (details are provided in the supporting information).

AKT1 (PKB alpha) = biological target: T2, AKT1 (PKB alpha) (Homo sapiens, UniProt P31749)
T2 construct: purchased ThermoFisher (SelectScreen, Z'-LYTE)
Procedure: as §1

CDK5/p25 = biological target: T3, CDK5/p25 (Homo sapiens, UniProt Q00535)
T3 construct: purchased ThermoFisher (SelectScreen, Z'-LYTE)
Procedure: as §1

CHEK2 (CHK2) = biological target: T4, CHEK2 (CHK2) (Homo sapiens, UniProt O96017)
T4 construct: purchased ThermoFisher (SelectScreen, Z'-LYTE)
Procedure: as §1

DYRK1B = biological target: T5, DYRK1B (Homo sapiens, UniProt Q9Y463)
T5 construct: purchased ThermoFisher (SelectScreen, Z'-LYTE)
Procedure: as §1

FGFR4 = biological target: T6, FGFR4 (Homo sapiens, UniProt P22455)
T6 construct: purchased ThermoFisher (SelectScreen, Z'-LYTE)
Procedure: as §1

HCK = biological target: T7, HCK (Homo sapiens, UniProt P08631)
T7 construct: purchased ThermoFisher (SelectScreen, Z'-LYTE)
Procedure: as §1

KIT = biological target: T8, KIT (Homo sapiens, UniProt P10721)
T8 construct: purchased ThermoFisher (SelectScreen, Z'-LYTE)
Procedure: as §1

MAP2K2 (MEK2) = biological target: T9, MAP2K2 (MEK2) (Homo sapiens, UniProt P36507); details: 10 µM compound; ATP 100
T9 construct: purchased ThermoFisher (SelectScreen, Z'-LYTE)
Procedure: as §1

MINK1 = biological target: T10, MINK1 (Homo sapiens, UniProt Q8N4C8)
T10 construct: purchased ThermoFisher (SelectScreen, Z'-LYTE)
Procedure: as §1

MUSK = biological target: T11, MUSK (Homo sapiens, UniProt O15146)
T11 construct: purchased ThermoFisher (SelectScreen, Z'-LYTE)
T11 sequence (O15146 24-869): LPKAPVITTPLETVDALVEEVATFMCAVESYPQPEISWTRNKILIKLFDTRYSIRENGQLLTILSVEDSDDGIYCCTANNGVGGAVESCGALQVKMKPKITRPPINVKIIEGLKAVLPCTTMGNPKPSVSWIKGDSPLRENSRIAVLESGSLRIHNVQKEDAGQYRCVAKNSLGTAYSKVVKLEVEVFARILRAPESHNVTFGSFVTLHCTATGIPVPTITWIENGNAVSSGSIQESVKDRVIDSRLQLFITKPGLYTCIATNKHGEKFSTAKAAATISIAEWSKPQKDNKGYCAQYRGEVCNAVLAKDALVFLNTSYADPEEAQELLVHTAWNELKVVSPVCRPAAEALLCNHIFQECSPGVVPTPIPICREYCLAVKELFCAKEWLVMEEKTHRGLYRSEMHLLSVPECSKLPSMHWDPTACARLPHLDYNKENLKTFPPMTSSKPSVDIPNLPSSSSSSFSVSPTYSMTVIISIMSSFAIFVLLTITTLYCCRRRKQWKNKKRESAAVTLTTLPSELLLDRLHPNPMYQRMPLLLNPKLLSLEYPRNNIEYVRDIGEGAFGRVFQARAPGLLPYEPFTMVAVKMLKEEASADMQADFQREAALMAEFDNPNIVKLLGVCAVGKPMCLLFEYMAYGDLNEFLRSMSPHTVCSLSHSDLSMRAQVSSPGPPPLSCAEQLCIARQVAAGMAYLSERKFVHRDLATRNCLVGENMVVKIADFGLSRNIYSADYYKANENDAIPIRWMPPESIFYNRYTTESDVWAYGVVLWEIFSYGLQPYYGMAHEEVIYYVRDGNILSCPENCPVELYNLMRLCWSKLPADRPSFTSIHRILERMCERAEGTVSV
Procedure: as §1

PAK2 (PAK65) = biological target: T12, PAK2 (PAK65) (Homo sapiens, UniProt Q13177)
T12 construct: purchased ThermoFisher (SelectScreen, Z'-LYTE)
Procedure: as §1

PIM1 = biological target: T13, PIM1 (Homo sapiens, UniProt P11309)
T13 construct: purchased ThermoFisher (SelectScreen, Z'-LYTE)
Procedure: as §1

PLK1 = biological target: T14, PLK1 (Homo sapiens, UniProt P53350)
T14 construct: purchased ThermoFisher (SelectScreen, Z'-LYTE)
Procedure: as §1

PRKG1 = biological target: T15, PRKG1 (Homo sapiens, UniProt Q13976)
T15 construct: purchased ThermoFisher (SelectScreen, Z'-LYTE)
T15 sequence (Q13976 1-671): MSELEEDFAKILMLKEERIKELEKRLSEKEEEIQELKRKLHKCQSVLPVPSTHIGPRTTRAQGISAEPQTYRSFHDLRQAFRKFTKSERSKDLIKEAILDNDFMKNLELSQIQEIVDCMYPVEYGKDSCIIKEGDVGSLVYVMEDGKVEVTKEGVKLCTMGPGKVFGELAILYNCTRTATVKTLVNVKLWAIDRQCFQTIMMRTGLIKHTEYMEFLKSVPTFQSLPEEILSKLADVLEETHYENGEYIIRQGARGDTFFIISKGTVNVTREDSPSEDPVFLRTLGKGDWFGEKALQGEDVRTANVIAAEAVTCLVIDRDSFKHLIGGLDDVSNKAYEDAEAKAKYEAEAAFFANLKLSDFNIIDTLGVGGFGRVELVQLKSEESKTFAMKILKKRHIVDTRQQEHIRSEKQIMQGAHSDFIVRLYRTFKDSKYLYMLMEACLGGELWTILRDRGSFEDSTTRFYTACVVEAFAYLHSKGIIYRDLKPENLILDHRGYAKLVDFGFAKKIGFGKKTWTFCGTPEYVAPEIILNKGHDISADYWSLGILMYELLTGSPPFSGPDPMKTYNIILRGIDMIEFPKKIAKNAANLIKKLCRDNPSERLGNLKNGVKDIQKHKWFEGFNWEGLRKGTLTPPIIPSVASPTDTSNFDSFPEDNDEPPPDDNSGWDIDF
Procedure: as §1

RPS6KB1 (p70S6K) = biological target: T16, RPS6KB1 (p70S6K) (Homo sapiens, UniProt P23443)
T16 construct: purchased ThermoFisher (SelectScreen, Z'-LYTE)
Procedure: as §1

T6 sequence (P22455 22-802): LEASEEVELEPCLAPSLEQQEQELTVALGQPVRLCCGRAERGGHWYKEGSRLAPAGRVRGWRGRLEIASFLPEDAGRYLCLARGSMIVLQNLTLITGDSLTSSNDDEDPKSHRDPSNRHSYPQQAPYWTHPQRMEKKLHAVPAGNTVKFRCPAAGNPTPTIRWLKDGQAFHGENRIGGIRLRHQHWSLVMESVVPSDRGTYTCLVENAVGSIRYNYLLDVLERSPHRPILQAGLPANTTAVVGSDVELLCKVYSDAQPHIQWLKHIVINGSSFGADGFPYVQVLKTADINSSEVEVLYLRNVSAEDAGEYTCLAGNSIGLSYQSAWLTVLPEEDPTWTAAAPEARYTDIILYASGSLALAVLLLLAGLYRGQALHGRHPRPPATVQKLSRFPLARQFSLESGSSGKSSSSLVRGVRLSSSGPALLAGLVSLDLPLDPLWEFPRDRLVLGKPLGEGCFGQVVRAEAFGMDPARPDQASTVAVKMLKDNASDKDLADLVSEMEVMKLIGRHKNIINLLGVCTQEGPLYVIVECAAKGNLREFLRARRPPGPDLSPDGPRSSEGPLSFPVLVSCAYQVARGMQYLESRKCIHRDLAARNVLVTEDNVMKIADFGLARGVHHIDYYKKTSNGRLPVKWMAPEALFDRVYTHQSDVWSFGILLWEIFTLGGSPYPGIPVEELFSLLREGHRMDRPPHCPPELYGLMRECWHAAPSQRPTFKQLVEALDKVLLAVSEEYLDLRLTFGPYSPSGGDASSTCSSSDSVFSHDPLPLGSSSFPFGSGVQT
T13 sequence (P11309 whole entry): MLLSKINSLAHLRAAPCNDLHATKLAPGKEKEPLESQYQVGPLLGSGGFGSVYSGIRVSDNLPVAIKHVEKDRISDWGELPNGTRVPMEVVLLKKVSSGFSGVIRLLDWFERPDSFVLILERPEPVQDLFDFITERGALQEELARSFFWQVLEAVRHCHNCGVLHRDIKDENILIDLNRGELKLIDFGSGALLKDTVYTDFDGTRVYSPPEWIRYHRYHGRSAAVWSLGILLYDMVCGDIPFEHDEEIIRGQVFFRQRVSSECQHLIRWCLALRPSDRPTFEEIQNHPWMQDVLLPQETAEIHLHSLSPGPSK
T14 sequence (P53350 whole entry): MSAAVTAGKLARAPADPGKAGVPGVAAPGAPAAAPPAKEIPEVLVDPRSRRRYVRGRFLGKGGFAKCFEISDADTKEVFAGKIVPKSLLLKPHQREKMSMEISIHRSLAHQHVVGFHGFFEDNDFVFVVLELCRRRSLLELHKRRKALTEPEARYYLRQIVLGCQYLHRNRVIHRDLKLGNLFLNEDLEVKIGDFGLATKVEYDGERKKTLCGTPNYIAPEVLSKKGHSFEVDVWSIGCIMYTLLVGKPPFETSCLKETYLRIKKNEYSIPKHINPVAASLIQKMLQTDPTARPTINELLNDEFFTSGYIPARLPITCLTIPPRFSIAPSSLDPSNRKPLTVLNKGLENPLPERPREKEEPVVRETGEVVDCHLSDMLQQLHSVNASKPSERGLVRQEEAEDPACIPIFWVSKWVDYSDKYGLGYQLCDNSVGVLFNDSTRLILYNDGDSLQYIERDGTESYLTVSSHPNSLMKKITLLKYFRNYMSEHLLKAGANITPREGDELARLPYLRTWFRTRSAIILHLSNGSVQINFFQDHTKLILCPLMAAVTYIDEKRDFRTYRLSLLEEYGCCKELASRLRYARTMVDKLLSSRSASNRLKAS
T7 sequence (P08631 whole entry): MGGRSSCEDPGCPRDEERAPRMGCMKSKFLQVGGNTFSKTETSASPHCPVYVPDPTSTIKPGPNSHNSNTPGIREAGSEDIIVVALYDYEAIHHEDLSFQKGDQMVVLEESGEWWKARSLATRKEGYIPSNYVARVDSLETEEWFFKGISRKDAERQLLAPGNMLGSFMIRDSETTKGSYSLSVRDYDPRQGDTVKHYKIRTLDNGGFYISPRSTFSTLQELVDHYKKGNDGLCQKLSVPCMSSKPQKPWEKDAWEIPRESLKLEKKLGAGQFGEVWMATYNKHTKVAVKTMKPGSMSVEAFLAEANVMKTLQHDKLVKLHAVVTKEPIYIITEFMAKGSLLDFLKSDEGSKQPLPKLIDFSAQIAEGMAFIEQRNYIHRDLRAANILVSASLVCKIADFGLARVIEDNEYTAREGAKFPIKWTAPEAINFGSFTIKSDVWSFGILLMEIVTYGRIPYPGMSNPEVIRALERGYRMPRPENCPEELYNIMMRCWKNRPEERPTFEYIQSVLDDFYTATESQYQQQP
T5 sequence (Q9Y463 whole entry): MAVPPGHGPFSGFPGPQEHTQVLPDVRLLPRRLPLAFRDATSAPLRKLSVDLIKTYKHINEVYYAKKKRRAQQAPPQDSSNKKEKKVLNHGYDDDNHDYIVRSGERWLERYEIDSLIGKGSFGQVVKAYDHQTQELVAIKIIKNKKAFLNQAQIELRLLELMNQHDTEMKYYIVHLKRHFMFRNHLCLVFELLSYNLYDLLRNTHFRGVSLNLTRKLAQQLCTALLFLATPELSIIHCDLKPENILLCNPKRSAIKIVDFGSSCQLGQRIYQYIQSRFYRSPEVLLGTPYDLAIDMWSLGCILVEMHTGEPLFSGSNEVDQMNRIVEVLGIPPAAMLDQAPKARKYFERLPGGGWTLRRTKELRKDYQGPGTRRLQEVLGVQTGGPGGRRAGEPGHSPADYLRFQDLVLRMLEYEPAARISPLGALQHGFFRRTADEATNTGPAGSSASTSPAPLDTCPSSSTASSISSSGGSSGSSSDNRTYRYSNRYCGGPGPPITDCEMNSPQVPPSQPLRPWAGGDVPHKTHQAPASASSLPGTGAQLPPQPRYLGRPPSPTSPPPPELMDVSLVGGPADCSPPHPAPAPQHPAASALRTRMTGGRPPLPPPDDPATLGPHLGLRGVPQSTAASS
T4 sequence (O96017 whole entry): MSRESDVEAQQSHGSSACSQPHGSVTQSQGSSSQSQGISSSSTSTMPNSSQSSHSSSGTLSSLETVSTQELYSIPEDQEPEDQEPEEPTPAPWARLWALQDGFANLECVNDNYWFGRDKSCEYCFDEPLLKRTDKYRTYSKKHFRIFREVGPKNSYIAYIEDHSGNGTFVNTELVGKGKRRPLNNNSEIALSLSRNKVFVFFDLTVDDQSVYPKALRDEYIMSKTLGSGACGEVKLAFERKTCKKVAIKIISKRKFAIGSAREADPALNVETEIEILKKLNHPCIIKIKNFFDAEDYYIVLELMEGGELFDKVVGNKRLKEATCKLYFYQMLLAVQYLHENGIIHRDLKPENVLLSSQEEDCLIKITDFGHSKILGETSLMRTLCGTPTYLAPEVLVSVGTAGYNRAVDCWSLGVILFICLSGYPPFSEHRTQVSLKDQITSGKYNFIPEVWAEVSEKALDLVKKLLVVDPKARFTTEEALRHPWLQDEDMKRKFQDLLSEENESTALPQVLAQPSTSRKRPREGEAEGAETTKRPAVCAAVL
T2 sequence (P31749 whole entry): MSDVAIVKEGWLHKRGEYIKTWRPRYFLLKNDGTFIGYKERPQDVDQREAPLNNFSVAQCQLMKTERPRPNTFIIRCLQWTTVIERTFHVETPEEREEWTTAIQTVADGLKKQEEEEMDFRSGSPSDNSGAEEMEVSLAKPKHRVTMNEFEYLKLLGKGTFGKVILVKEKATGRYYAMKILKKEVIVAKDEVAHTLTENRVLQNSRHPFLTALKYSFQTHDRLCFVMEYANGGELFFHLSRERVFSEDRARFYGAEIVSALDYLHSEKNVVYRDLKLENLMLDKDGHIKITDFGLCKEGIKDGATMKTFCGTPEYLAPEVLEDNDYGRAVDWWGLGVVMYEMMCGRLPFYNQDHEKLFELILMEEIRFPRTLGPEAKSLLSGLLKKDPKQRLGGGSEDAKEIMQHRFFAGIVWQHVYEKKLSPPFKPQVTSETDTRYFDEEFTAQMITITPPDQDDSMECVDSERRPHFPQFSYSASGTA
T12 sequence (Q13177 whole entry): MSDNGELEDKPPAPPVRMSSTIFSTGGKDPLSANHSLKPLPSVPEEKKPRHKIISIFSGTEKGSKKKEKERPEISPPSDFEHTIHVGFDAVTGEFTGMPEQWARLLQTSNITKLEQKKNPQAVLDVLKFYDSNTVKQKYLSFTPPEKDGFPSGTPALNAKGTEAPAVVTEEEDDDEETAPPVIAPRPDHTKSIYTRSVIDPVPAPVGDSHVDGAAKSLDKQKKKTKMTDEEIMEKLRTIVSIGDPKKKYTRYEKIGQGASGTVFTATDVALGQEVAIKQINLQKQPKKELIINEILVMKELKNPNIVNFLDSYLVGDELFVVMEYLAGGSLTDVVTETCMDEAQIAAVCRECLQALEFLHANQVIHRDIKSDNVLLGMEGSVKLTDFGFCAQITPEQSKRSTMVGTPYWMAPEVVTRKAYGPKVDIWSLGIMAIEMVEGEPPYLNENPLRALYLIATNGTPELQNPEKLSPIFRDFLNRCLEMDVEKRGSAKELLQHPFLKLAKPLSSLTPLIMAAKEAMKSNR
T16 sequence (P23443 whole entry): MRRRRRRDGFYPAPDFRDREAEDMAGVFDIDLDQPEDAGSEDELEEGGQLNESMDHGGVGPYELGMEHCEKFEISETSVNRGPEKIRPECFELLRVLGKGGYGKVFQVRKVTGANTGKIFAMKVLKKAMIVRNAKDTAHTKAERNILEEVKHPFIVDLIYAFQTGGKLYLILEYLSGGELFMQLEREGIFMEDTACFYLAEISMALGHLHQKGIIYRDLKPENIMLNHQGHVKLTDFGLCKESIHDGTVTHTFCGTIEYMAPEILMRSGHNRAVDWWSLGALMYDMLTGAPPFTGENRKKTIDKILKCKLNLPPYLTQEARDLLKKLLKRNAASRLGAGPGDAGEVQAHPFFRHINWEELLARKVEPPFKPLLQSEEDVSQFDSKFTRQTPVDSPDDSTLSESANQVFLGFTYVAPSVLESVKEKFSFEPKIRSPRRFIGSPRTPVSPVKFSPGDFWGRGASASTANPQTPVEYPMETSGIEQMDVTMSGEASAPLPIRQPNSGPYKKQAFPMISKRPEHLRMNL

Row | Molecule | inhibition at 10 µM (ACVR1B (ALK4)) [%] | inhibition at 10 µM (AKT1 (PKB alpha)) [%] | inhibition at 10 µM (CDK5/p25) [%] | inhibition at 10 µM (CHEK2 (CHK2)) [%] | inhibition at 10 µM (DYRK1B) [%] | inhibition at 10 µM (FGFR4) [%] | inhibition at 10 µM (HCK) [%] | inhibition at 10 µM (KIT) [%] | inhibition at 10 µM (MAP2K2 (MEK2)) [%] | inhibition at 10 µM (MINK1) [%] | inhibition at 10 µM (MUSK) [%] | inhibition at 10 µM (PAK2 (PAK65)) [%] | inhibition at 10 µM (PIM1) [%] | inhibition at 10 µM (PLK1) [%] | inhibition at 10 µM (PRKG1) [%] | inhibition at 10 µM (RPS6KB1 (p70S6K)) [%] | further results
1 | Cc1ncc(-c2nc(Nc3ccc(C(=O)NCCN4CCCCC4)cc3)ncc2F)n1C(C)C [Compound 3] | 52 | 19 | 99 | 88 | 100 | 19 | 48 | 31 | 94 | 88 | 92 | 54 | 65 | 57 | 80 | 87 | 
2 | Cc1cc(Nc2nc(N)nn2C(=O)NC(C)C)ccc1Cl [Compound 5] | -8 | 0.31 | 77 | 4.23 | -4 | 10 | 16 | 11 | 21 | 21 | 22 | -1.24 | -1.79 | 0.455 | -4 | 7 | 
3 | XMD8-92 [Compound 2, reference compound] |  |  |  |  |  |  |  |  |  |  |  |  |  |  |  |  | ACVR1B (ALK4) % Inhibition (ACVR1B (ALK4); 10 µM compound, ATP Km app): -2.75%; AKT1 (PKB alpha) % Inhibition (AKT1 (PKB alpha); 10 µM compound, ATP Km app): 41%; CDK5/p25 % Inhibition (CDK5/p25; 10 µM compound, ATP Km app): 38%; CHEK2 (CHK2) % Inhibition (CHEK2 (CHK2); 10 µM compound, ATP Km app): 26%; DYRK1B % Inhibition (DYRK1B; 10 µM compound, ATP Km app): 12%; FGFR4 % Inhibition (FGFR4; 10 µM compound, ATP Km app): 19%; HCK % Inhibition (HCK; 10 µM compound, ATP Km app): 14%; KIT % Inhibition (KIT; 10 µM compound, ATP Km app): -5.51%; MAP2K2 (MEK2) % Inhibition (MAP2K2 (MEK2)): 24%; MINK1 % Inhibition (MINK1; 10 µM compound, ATP Km app): 66%; MUSK % Inhibition (MUSK; 10 µM compound, ATP Km app): 21%; PAK2 (PAK65) % Inhibition (PAK2 (PAK65); 10 µM compound, ATP Km app): 12%; PIM1 % Inhibition (PIM1; 10 µM compound, ATP Km app): 35%; PLK1 % Inhibition (PLK1; 10 µM compound, ATP Km app): 10%; PRKG1 % Inhibition (PRKG1; 10 µM compound, ATP Km app): 10%; RPS6KB1 (p70S6K) % Inhibition (RPS6KB1 (p70S6K); 10 µM compound, ATP Km app): 5%

From paper PMC4854315, “Discovery of a novel allosteric inhibitor-binding site in ERK5: comparison with the canonical kinase hinge ATP-binding site” (Acta Crystallographica. Section D, Structural Biology, 2016)
